Test results taken from US12129237B2, “Substituted diaminocarboxamide and diaminocarbonitrile pyrimidines, compositions thereof, and methods of treatment therewith” (SIGNAL PHARMACEUTICALS, LLC, priority 2011, dated 2024).

These compounds were tested against T1, JNK1 (Homo sapiens, UniProt P45983) (assay: JNK1 biochemical assays (one or more of: time resolved fluorescence, Z'-LYTE Cascade, radioactive)). Conditions: Table 2; JNK1 IC50 activity level; read-out: Act. Level.
T1 construct: purchased Carna Biosciences
T1 sequence (P45983 whole entry): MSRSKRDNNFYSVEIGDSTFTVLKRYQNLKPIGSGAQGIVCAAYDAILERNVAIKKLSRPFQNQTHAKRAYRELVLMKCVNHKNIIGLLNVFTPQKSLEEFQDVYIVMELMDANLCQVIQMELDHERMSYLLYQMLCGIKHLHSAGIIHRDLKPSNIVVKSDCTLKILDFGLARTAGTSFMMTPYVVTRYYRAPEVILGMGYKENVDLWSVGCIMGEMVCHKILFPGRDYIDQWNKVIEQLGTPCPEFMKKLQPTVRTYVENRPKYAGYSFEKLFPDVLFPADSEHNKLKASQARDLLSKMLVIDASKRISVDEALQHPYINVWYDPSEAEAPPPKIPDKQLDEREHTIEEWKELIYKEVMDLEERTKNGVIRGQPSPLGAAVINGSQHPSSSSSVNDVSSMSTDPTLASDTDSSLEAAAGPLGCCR

Q: With CCC(C)Nc1ncc(C(N)=O)c(Nc2ccccc2)n1 (stereo not shown) [Example B-46, 2-(sec-butylamino)-4-(phenylamino)pyrimidine-5-carboxamide] as the compound, how does the IC50 read?
A: < 200 nM

Q: How did the IC50 turn out when NC(=O)c1cnc(NCC2CC2)nc1Nc1ccccc1 [Example B-35, 2-(cyclopropylmethylamino)-4-(phenylamino)pyrimidine-5-carboxamide] was run?
A: 200 to 800 nM

Q: With Cc1ccccc1Nc1ncc(C(N)=O)c(Nc2ccccc2)n1 [Example B-30, 4-(phenylamino)-2-(o-tolylamino)pyrimidine-5-carboxamide] as the compound, how does the IC50 read?
A: < 200 nM

Q: NC(=O)c1cnc(N[C@@H]2CCc3ncccc3C2)nc1N[C@@H]1CCCC[C@H](O)C1 [Example B-98, 4-((1R,3S)-3-hydroxycycloheptylamino)-2-((R)-5,6,7,8-tetrahydroquinolin-6-ylamino)pyrimidine-5-carboxamide] was tested. Which IC50 did it give?
A: < 200 nM

Q: Which IC50 does the source give for C[C@@H]1CC[C@@H](Nc2nc(N[C@H]3CCc4ncccc4C3)ncc2C(N)=O)C[C@H]1O [Example B-93, 4-((1R,3R,4R)-3-hydroxy-4-methylcyclohexylamino)-2-((S)-5,6,7,8-tetrahydroquinolin-6-ylamino)pyrimidine-5-carboxamide] here?
A: < 200 nM

Q: With NC(=O)c1cnc(Nc2ccc(N3CCOCC3)cc2)nc1Nc1ccccc1 [Example B-40, 2-(4-morpholinophenylamino)-4-(phenylamino)pyrimidine-5-carboxamide] as the compound, how does the IC50 read?
A: < 200 nM

Q: With C[C@@H]1CC[C@@H](Nc2nc(N[C@@H]3CCc4ncccc4C3)ncc2C(N)=O)C[C@H]1O [Example B-94, 4-((1R,3R,4R)-3-hydroxy-4-methylcyclohexylamino)-2-((R)-5,6,7,8-tetrahydroquinolin-6-ylamino)pyrimidine-5-carboxamide] as the compound, how does the IC50 read?
A: < 200 nM

Same assay, conditions: Table 3; JNK1 IC50 activity level; read-out: Act. Level

Q: With CO[C@H]1CC[C@H](Nc2ncc(C#N)c(N[C@@H]3CC[C@@H](C)C(O)C3)n2)CC1 (stereo partly drawn) [Example C-46, 4-((1R,3R,4R)-3-hydroxy-4-methylcyclohexylamino)-2-((1r,4R)-4-methoxycyclohexylamino) pyrimidine-5-carbonitrile] as the compound, how does the IC50 read?
A: < 200 nM

Q: How did the IC50 turn out when CN(C)C(=O)[C@H]1CC[C@H](Nc2ncc(C#N)c(N[C@@H]3CCC[C@H](O)C3)n2)CC1 [Example C-9, (1R,4r)-4-(5-cyano-4-((1R,3S)-3-hydroxycyclohexylamino)pyrimidin-2-ylamino)-N,N-dimethylcyclohexanecarboxamide] was run?
A: < 200 nM

Same assay, conditions: one or more of the JNK1 biochemical assays; read-out: Act. Level (JNK1 IC50 activity level)

Q: C[C@@H]1CC[C@@H](Nc2nc(NCC3CC3)ncc2C(N)=O)C[C@H]1O [Example 472, 2-(cyclopropylmethylamino)-4-((1R,3R,4R)-3-hydroxy-4-methylcyclohexylamino)pyrimidine-5-carboxamide] was tested. Which IC50 did it give?
A: < 200 nM

Q: How did the IC50 turn out when CC1(Nc2nc(NC3CCOCC3)ncc2C(N)=O)CCC1 [Example 413, 4-(1-methylcyclobutylamino)-2-(tetrahydro-2H-pyran-4-ylamino)pyrimidine-5-carboxamide] was run?
A: < 200 nM

Q: Which IC50 does the source give for CC(C)(C)Nc1nc(N[C@H]2CC[C@H](OCC(F)(F)F)CC2)ncc1C(N)=O [Example 212, 4-(tert-butylamino)-2-((1r,4r)-4-(2,2,2-trifluoroethoxy)cyclohexylamino)pyrimidine-5-carboxamide] here?
A: < 200 nM

Q: CC(C)(C)Nc1nc(N[C@H]2CCC[C@H](O)C2)ncc1C(N)=O [Example 305, 4-(tert-butylamino)-2-((1S,3S)-3-hydroxycyclohexylamino)pyrimidine-5-carboxamide] was tested. Which IC50 did it give?
A: < 200 nM

Q: For CC(C)(C)Nc1nc(N[C@H]2CCCC[C@@H](O)C2)ncc1C(N)=O [Example 388, 4-(tert-butylamino)-2-((1S,3R)-3-hydroxycycloheptylamino)pyrimidine-5-carboxamide], which IC50 is on record?
A: < 200 nM

Q: NC(=O)c1cnc(N[C@H]2CC[C@H](O)CC2)nc1NCCC1CCC1 [Example 219, 4-(2-cyclobutylethylamino)-2-((1r,4r)-4-hydroxycyclohexylamino)pyrimidine-5-carboxamide] was tested. Which IC50 did it give?
A: < 200 nM

Q: Which IC50 does the source give for CCC1(Nc2nc(N[C@H]3CC[C@H](O)CC3)ncc2C(N)=O)CC1 [Example 356, 4-(1-ethylcyclopropylamino)-2-((1r,4r)-4-hydroxycyclohexylamino)pyrimidine-5-carboxamide] here?
A: < 200 nM

Q: CCO[C@H]1CC[C@H](Nc2ncc(C(N)=O)c(NC3(C)CCC3)n2)CC1 [Example 401, 2-((1r,4r)-4-ethoxycyclohexylamino)-4-(1-methylcyclobutylamino)pyrimidine-5-carboxamide] was tested. Which IC50 did it give?
A: < 200 nM

Q: How did the IC50 turn out when CC1(Nc2nc(NC34CCC(O)(CC3)CC4)ncc2C(N)=O)CCC1 [Example 412, 2-(4-hydroxybicyclo[2.2.2]octan-1-ylamino)-4-(1-methylcyclobutylamino)pyrimidine-5-carboxamide] was run?
A: < 200 nM

Q: Which IC50 does the source give for C[C@@H]1CC[C@@H](Nc2nc(NC3(C)CCCC3)ncc2C(N)=O)C[C@H]1O [Example 475, 4-((1R,3R,4R)-3-hydroxy-4-methylcyclohexylamino)-2-(1-methylcyclopentylamino)pyrimidine-5-carboxamide] here?
A: < 200 nM

Q: Which IC50 does the source give for CC(C)CCNc1nc(N[C@H]2CC[C@H](O)CC2)ncc1C(N)=O [Example 220, 2-((1r,4r)-4-hydroxycyclohexylamino)-4-(isopentylamino)pyrimidine-5-carboxamide] here?
A: < 200 nM

Q: How did the IC50 turn out when CC(C)(C)Nc1nc(N[C@@H]2CCC[C@@H](O)C2)ncc1C(N)=O [Example 299, 4-(tert-butylamino)-2-((1R,3R)-3-hydroxycyclohexylamino)pyrimidine-5-carboxamide] was run?
A: < 200 nM

Q: With CC1(Nc2nc(NC34CCC(O)(CC3)C4)ncc2C(N)=O)CCC1 [Example 451, 2-(4-hydroxybicyclo[2.2.1]heptan-1-ylamino)-4-(1-methylcyclobutylamino)pyrimidine-5-carboxamide] as the compound, how does the IC50 read?
A: < 200 nM

Q: NC(=O)c1cnc(NC23CCC(O)(CC2)CC3)nc1NC12CC(C1)C2 [Example 417, 4-(bicyclo[1.1.1]pentan-1-ylamino)-2-(4-hydroxybicyclo[2.2.2]octan-1-ylamino)pyrimidine-5-carboxamide] was tested. Which IC50 did it give?
A: < 200 nM

Q: With C[C@@H]1CC[C@@H](Nc2nc(N[C@H](C)C(C)(C)C)ncc2C(N)=O)C[C@H]1O [Example 461, 2-((R)-3,3-dimethylbutan-2-ylamino)-4-((1R,3R,4R)-3-hydroxy-4-methylcyclohexylamino)pyrimidine-5-carboxamide] as the compound, how does the IC50 read?
A: < 200 nM

Same assay, conditions: tested in one or more of the JNK1 biochemical assays; read-out: Act. Level (JNK1 biochemical assay IC50 activity level)

Q: For CO[C@H]1CC[C@H](Nc2ncc(C(N)=O)c(N[C@H]3CC[C@@H](C(=O)N(C)C)CC3)n2)CC1 [Example A-118, 4-((1s,4s)-4-(dimethylcarbamoyl)cyclohexylamino)-2-((1r,4r)-4-methoxycyclohexylamino)pyrimidine-5-carboxamide], which IC50 is on record?
A: < 200 nM

Q: CC(C)Nc1nc(NC2CCC3(CC2)OCCO3)ncc1C(N)=O [Example A-11, 2-(1,4-dioxaspiro[4.5]decan-8-ylamino)-4-(isopropylamino)pyrimidine-5-carboxamide] was tested. Which IC50 did it give?
A: 200 to 800 nM

Q: For CO[C@H]1CC[C@H](Nc2ncc(C(N)=O)c(N[C@H]3CC[C@H](CO)C3)n2)CC1 [Example A-98, 4-((1S,3S)-3-(hydroxymethyl)cyclopentylamino)-2-((1r,4S)-4-methoxycyclohexylamino)pyrimidine-5-carboxamide], which IC50 is on record?
A: < 200 nM

Q: With CC(C)(C)Nc1ncc(C(N)=O)c(N[C@@H]2CCCC[C@H](O)C2)n1 [Example A-182, 2-(tert-butylamino)-4-((1R,3S)-3-hydroxycycloheptylamino)pyrimidine-5-carboxamide] as the compound, how does the IC50 read?
A: < 200 nM

Q: CCC(=O)N1CCC(Nc2ncc(C(N)=O)c(NC3CCCC3)n2)CC1 [Example A-114, 4-(cyclopentylamino)-2-(1-propionylpiperidin-4-ylamino)pyrimidine-5-carboxamide] was tested. Which IC50 did it give?
A: < 200 nM

Q: C[C@@H]1CC[C@@H](Nc2nc(N[C@H]3CC[C@H](OC(F)F)CC3)ncc2C(N)=O)C[C@H]1O [Example A-173, 2-((1r,4R)-4-(difluoromethoxy)cyclohexylamino)-4-((1R,3R,4R)-3-hydroxy-4-methylcyclohexylamino)pyrimidine-5-carboxamide] was tested. Which IC50 did it give?
A: < 200 nM

Q: Which IC50 does the source give for COC[C@H]1CC[C@@H](Nc2nc(N[C@@H]3CCN(C(C)=O)C3)ncc2C(N)=O)CC1 [Example A-84, 2-((R)-1-acetylpyrrolidin-3-ylamino)-4-((1s,4S)-4-(methoxymethyl)cyclohexylamino)pyrimidine-5-carboxamide] here?
A: 200 to 800 nM

Q: How did the IC50 turn out when CCO[C@H]1CC[C@H](Nc2ncc(C(N)=O)c(N[C@@H]3CCOC3)n2)CC1 [Example A-167, 2-((1r,4R)-4-ethoxycyclohexylamino)-4-((R)-tetrahydrofuran-3-ylamino)pyrimidine-5-carboxamide] was run?
A: < 200 nM

Q: How did the IC50 turn out when NC(=O)c1cnc(N[C@@H]2CCCOC2)nc1N[C@@H]1CCC[C@H](O)C1 [Example A-50, 4-((1R,3S)-3-hydroxycyclohexylamino)-2-((R)-tetrahydro-2H-pyran-3-ylamino)pyrimidine-5-carboxamide] was run?
A: < 200 nM

Q: Which IC50 does the source give for C[C@]1(O)CCC[C@@H](Nc2nc(NC3CCC(F)(F)CC3)ncc2C(N)=O)C1 [Example A-187, 2-(4,4-difluorocyclohexylamino)-4-((1R,3S)-3-hydroxy-3-methylcyclohexylamino)pyrimidine-5-carboxamide] here?
A: < 200 nM

Q: How did the IC50 turn out when CCO[C@H]1CC[C@H](Nc2ncc(C(N)=O)c(N[C@H]3CCC[C@H]3O)n2)CC1 [Example A-63, 2-((1r,4S)-4-ethoxycyclohexylamino)-4-((1S,2R)-2-hydroxycyclopentylamino)pyrimidine-5-carboxamide] was run?
A: 200 to 800 nM

Q: Which IC50 does the source give for CC(=O)N1CCC(Nc2nc(N[C@@H](C)C3CCCCC3)ncc2C(N)=O)CC1 [Example A-127, (S)-4-(1-acetylpiperidin-4-ylamino)-2-(1-cyclohexylethylamino)pyrimidine-5-carboxamide] here?
A: < 200 nM

Q: How did the IC50 turn out when NC(=O)c1cnc(N[C@H]2CC[C@H](OC(F)F)CC2)nc1N[C@@H]1CCC[C@H]1O [Example A-4, 2-((1r,4R)-4-(difluoromethoxy)cyclohexylamino)-4-((1R,2R)-2-hydroxycyclopentylamino)pyrimidine-5-carboxamide] was run?
A: < 200 nM
